pIC50, pKi: −log10 of the molar value.
Legend:
[1] = Elimination half life in rat at 3 mg/kg, po; format: ADME, organism-based; design: dose 3 mg/kg, route oral; details: in vivo, read-out: beta t1/2 (converted)
[2] = test system: Rattus norvegicus; assay: Antidepressant activity in po dosed rat assessed as increase in extracellular 5HT level in dorsal lateral frontal cortex after 3 hrs by microdialysis assay; format: functional, organism-based
[3] = Elimination half life in rat at 10 mg/kg, po; format: ADME, organism-based; design: dose 10 mg/kg, route oral; details: in vivo, read-out: beta t1/2 (converted)
[4] = Tmax in rat at 3 mg/kg, po; format: ADME, organism-based; design: dose 3 mg/kg, route oral; details: in vivo
[5] = AUC in rat at 10 mg/kg, po; format: ADME, organism-based; design: dose 10 mg/kg, route oral; details: plasma
[6] = molecular target: Cytochrome P450 2D6 (Homo sapiens, UniProt P10635); assay: Inhibition of CYP2D6 in human liver microsomes upto100 uM; format: ADME, Microsome
Cytochrome P450 2D6, sequence (P10635 whole entry): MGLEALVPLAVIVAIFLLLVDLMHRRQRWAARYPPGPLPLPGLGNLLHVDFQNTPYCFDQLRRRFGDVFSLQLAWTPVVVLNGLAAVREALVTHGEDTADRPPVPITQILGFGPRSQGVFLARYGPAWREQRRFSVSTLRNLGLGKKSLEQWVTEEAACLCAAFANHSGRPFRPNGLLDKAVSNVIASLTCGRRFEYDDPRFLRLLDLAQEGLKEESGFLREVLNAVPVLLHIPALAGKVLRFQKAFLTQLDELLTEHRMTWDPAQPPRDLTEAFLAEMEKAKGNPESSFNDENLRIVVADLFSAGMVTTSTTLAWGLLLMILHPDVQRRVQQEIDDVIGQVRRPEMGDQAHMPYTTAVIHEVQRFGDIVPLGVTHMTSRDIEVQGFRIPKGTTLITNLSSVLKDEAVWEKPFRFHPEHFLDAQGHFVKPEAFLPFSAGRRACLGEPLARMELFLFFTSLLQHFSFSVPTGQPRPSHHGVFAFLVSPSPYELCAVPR

[7] = test system: Rattus norvegicus; assay: Initial plasma concentration in rat at 1 mg/kg, iv; format: ADME, organism-based; design: dose 1 mg/kg, route intravenous; details: in vivo
[8] = molecular target: T1, D(4) dopamine receptor (Homo sapiens, UniProt P21917); assay: Displacement of [3H]spiperone from human dopamine D4 receptor expressed in CHO cells; format: cell-based
T1 sequence (P21917 whole entry): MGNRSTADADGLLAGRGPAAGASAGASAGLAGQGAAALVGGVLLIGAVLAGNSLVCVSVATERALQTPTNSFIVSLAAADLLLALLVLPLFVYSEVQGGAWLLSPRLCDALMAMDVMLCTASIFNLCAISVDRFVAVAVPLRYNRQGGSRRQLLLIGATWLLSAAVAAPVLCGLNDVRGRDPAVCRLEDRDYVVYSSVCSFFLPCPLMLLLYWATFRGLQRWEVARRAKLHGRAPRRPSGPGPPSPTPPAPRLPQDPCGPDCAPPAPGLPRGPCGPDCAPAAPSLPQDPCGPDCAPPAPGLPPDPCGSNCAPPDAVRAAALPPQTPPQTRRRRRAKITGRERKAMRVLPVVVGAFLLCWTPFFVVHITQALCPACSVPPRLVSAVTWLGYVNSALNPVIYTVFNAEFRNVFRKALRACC

[9] = Elimination half life in rat at 1 mg/kg, iv; format: ADME, organism-based; design: dose 1 mg/kg, route intravenous; details: in vivo, read-out: beta t1/2 (converted)
[10] = molecular target: T2, 5-hydroxytryptamine receptor 1A (Homo sapiens, UniProt P08908)
T2 sequence (P08908 whole entry): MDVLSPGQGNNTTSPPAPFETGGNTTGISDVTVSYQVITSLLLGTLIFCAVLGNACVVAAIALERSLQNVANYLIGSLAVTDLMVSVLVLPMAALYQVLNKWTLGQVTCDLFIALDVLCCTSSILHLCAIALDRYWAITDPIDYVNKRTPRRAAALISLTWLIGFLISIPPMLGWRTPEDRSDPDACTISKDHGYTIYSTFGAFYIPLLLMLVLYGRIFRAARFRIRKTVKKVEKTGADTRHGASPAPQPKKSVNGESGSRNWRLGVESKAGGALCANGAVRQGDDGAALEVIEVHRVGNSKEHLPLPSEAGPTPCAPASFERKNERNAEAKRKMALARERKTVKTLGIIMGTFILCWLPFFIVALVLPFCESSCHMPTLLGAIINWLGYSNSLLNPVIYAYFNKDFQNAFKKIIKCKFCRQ
Description: Antagonist activity at human 5HT1A receptor expressed in CHO cells assessed as stimulation of [35S]GTPgammaS binding

[11] = test system: Rattus norvegicus; assay: AUC in rat at 1 mg/kg, iv; format: ADME, organism-based, Plasma; design: dose 1 mg/kg, route intravenous; details: in vivo
[12] = molecular target: T3, Adrenergic receptor alpha-1 (Rattus norvegicus, UniProt P15823+P23944+P43140); assay: Displacement of [3H]prazosin from alpha1 adrenergic receptor in rat cortical membranes; format: cell membranes, Membrane
T3 sequence (P15823 whole entry): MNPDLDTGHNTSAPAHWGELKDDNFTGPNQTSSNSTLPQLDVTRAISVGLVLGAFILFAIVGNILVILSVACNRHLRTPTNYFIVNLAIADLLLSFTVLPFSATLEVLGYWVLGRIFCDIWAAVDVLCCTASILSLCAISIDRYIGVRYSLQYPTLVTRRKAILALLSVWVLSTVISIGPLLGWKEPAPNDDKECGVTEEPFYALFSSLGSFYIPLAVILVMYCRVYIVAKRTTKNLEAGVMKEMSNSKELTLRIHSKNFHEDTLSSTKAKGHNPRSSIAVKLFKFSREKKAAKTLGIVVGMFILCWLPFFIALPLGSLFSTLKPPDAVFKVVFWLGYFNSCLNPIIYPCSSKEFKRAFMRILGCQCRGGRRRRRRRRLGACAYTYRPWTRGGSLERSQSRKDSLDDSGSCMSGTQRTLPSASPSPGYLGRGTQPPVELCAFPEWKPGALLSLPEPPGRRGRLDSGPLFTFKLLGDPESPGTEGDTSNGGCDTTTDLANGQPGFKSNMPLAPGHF
T3 sequence (P23944 whole entry): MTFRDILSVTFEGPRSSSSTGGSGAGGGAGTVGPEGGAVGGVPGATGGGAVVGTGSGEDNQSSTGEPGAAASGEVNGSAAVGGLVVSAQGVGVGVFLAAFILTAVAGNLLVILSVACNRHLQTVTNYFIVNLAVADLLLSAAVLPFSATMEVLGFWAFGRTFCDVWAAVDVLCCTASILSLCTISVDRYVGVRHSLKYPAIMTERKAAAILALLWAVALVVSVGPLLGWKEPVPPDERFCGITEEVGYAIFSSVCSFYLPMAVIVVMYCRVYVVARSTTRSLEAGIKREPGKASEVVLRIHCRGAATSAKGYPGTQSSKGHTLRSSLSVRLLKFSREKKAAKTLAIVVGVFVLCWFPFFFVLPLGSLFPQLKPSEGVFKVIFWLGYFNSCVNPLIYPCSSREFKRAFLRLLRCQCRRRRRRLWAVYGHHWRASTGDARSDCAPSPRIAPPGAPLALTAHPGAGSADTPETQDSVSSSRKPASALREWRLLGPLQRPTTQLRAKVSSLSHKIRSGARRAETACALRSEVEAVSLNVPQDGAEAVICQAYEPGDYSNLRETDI
T3 sequence (P43140 whole entry): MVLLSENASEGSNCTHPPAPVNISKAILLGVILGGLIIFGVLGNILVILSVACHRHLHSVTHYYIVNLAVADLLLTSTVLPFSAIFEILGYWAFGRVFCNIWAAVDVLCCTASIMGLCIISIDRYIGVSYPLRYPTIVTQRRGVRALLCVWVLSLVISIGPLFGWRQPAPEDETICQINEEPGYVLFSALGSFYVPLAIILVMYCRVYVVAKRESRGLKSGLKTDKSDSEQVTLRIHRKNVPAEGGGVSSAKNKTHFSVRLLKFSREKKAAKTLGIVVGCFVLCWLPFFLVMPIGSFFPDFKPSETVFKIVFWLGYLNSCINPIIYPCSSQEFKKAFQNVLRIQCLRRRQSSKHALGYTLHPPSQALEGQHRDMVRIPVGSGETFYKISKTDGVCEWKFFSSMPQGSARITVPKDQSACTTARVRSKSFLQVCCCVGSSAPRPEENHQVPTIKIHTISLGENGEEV

[13] = molecular target: Sodium-dependent serotonin transporter (Rattus norvegicus, UniProt P31652)
Sodium-dependent serotonin transporter, sequence (P31652 whole entry): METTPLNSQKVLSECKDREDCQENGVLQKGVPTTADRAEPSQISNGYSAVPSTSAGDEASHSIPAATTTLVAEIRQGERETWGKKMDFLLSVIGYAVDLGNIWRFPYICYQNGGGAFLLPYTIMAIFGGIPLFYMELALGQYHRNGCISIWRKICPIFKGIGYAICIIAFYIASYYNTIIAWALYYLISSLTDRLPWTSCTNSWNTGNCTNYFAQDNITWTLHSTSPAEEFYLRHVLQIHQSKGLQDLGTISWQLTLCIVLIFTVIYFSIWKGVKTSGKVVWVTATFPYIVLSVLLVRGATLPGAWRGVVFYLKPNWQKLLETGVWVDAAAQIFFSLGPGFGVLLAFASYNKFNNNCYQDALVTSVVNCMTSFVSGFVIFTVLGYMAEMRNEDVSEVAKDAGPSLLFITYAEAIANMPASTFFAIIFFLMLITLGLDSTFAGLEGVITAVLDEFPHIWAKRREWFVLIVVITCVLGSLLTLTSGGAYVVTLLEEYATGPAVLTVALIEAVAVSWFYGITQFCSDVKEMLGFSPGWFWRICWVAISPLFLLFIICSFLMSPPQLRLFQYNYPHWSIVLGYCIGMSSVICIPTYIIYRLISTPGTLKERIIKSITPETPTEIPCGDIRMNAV
Description: Displacement of [3H]paroxetine from 5HT transporter in rat cortical membrane

[14] = test system: Rattus norvegicus; assay: Antidepressant like activity in sc dosed rat resident-intruder model assessed as reduction of aggressive behavior level administered 30 mins prior to test; format: functional
[15] = Cmax in rat at 3 mg/kg, po; format: ADME, organism-based; design: dose 3 mg/kg, route oral; details: in vivo
[16] = test system: Rattus norvegicus; assay: Antidepressant activity in rat assessed as increase in extracellular 5HT level in dorsal lateral frontal cortex at 30 mg/kg, po after 3 hrs by microdialysis assay relative to basal level; format: functional

## Cc1ccc2c3c(ccc2n1)OC[C@H](CN1CCN(c2ccc4cc(C#N)ccc4n2)CC1)O3
[1]
  half-life: 3.8 h
[2]
  Activity: Dose-dependent effect
[3]
  half-life: 3.8 h
[4]
  Tmax: 1.3 h
[5]
  AUC: 4620 ng·h/mL
[6]
  inhibition (INH): Not Active
[7]
  C0: 903 ng/mL
[8]
  pKi: 5.85
[9]
  half-life: 4 h
[10]
  pIC50: 6.99
[11]
  AUC: 1268 ng·h/mL
[12]
  Ki: 1110 nM
[13]
  pKi: 7.86
[14]
  Activity: Dose-dependent effect
[14]; read-out: ID50 (the source's name)
  ED50: 12.5 mg/kg
[15]
  Cmax: 456 ng/mL
[16]
  Activity: 71%

From ChEMBL document CHEMBL1151947, “Synthesis, potency, and in vivo evaluation of 2-piperazin-1-ylquinoline analogues as dual serotonin reuptake inhibitors and serotonin 5-HT1A receptor antagonists” (J Med Chem, 2009)
